Like-named read-outs stand apart in the source and are kept apart here.
Molecular target: BTK (Homo sapiens (Human), UniProt Q06187)
Experiment: In vitro BTK kinase assay: BTK-POLYGAT-LS ASSAY
[1] = read-out: IC50 (10 uM ATP), 10 uM ATP, in vitro Btk kinase assay, Example 41

Sequence of BTK (Q06187 whole entry): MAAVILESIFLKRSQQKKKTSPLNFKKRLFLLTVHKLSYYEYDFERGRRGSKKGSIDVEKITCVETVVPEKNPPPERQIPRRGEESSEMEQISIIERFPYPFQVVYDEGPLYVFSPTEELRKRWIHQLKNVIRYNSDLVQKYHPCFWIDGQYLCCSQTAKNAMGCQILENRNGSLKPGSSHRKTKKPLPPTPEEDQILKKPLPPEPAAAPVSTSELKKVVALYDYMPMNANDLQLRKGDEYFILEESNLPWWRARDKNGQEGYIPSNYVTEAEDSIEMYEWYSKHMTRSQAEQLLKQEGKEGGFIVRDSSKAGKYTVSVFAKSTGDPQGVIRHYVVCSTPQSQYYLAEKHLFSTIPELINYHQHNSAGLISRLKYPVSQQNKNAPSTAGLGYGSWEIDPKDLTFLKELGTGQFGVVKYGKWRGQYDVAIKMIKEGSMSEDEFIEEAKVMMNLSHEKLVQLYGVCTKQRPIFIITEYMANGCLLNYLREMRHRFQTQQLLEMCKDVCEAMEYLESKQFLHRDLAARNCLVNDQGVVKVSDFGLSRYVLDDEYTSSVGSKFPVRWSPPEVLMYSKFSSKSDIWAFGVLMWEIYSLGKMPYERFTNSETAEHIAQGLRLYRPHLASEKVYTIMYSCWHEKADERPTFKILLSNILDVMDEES

Work on Nc1ncnc(N2CCC[C@@H](N3CCCC(Nc4cc(F)cc(Cl)c4)C3=O)C2)c1F (stereo in doubt) [compound 313, (3R,3′R)-1′-(6-Amino-5-fluoropyrimidin-4-yl)-3-(3-chloro-5-fluorophenylamino)-1,3′-bipiperidin-2-one] yielded an IC50 [1] of less than 0.1 µM.

Nc1ncnc(N2CCC[C@@H](N3CCCC(Nc4cc(F)cc(Cl)c4)C3=O)C2)c1F (stereo in doubt) [compound 314, (3S,3′R)-1′-(6-Amino-5-fluoropyrimidin-4-yl)-3-(3-chloro-5-fluorophenylamino)-1,3′-bipiperidin-2-one] was tested, and the IC50 [1] was less than 0.1 µM.

For Nc1ncnc(N2CCC[C@@H](N3CCCC(Nc4ccccc4S(=O)(=O)c4ccccc4)C3=O)C2)c1F (stereo in doubt) [compound 319, 1′-(6-Amino-5-fluoropyrimidin-4-yl)-3-(2-(phenylsulfonyl)phenylamino)-1,3′-bipiperidin-2-one], the IC50 [1] was less than 0.1 µM.

O=C(Nc1cccc(C2CCCN(c3ncnc4[nH]ccc34)C2)c1)c1ccccc1 (centres unmarked) [Cmpd 2, N-(3-(1-(7H-pyrrolo[2,3-d]pyrimidin-4-yl)piperidin-3-yl)phenyl)benzamide] was tested, and the IC50 was 1 to 10 µM.

With O=C(Nc1cccc(C2CCCN(c3ncnc4[nH]ccc34)C2)c1)c1ccc(Cl)cc1 (centres unmarked) [Cmpd 3, N-(3-(1-(7H-pyrrolo[2,3-d]pyrimidin-4-yl)piperidin-3-yl)phenyl)-4-chlorobenzamide] the IC50 was 1 to 10 µM.

Work on O=C(Nc1cccc(C2CCCN(c3ncnc4[nH]ccc34)C2)c1)c1cccc(Cl)c1 (centres unmarked) [Cmpd 4, N-(3-(1-(7H-pyrrolo[2,3-d]pyrimidin-4-yl)piperidin-3-yl)phenyl)-3-chlorobenzamide] yielded an IC50 of 1 to 10 µM.

O=C(Nc1cccc(C2CCCN(c3ncnc4[nH]ccc34)C2)c1)c1ccccc1Cl (centres unmarked) [Cmpd 5, N-(3-(1-(7H-pyrrolo[2,3-d]pyrimidin-4-yl)piperidin-3-yl)phenyl)-2-chlorobenzamide] gave an IC50 [1] greater than 10 µM.

With COc1ccccc1C(=O)Nc1cccc(C2CCCN(c3ncnc4[nH]ccc34)C2)c1 (centres unmarked) [Cmpd 6, N-(3-(1-(7H-pyrrolo[2,3-d]pyrimidin-4-yl)piperidin-3-yl)phenyl)-2-methoxybenzamide] the IC50 [1] was greater than 10 µM.

With COc1cccc(C(=O)Nc2cccc(C3CCCN(c4ncnc5[nH]ccc45)C3)c2)c1 (centres unmarked) [Cmpd 7, N-(3-(1-(7H-pyrrolo[2,3-d]pyrimidin-4-yl)piperidin-3-yl)phenyl)-3-methoxybenzamide] the IC50 [1] was greater than 10 µM.

With COc1ccc(C(=O)Nc2cccc(C3CCCN(c4ncnc5[nH]ccc45)C3)c2)cc1 (centres unmarked) [Cmpd 8, N-(3-(1-(7H-pyrrolo[2,3-d]pyrimidin-4-yl)piperidin-3-yl)phenyl)-4-methoxybenzamide] the IC50 [1] was greater than 10 µM.

Compound O=C(Cc1ccccc1)Nc1cccc(C2CCCN(c3ncnc4[nH]ccc34)C2)c1 (centres unmarked) [Cmpd 9, N-(3-(1-(7H-pyrrolo[2,3-d]pyrimidin-4-yl)piperidin-3-yl)phenyl)-2-phenylacetamide] has an IC50 [1] greater than 10 µM.

With O=C(Nc1cccc(C2CCCN(c3ncnc4[nH]ccc34)C2)c1)c1c(Cl)cccc1Cl (centres unmarked) [Cmpd 10, N-(3-(1-(7H-pyrrolo[2,3-d]pyrimidin-4-yl)piperidin-3-yl)phenyl)-2,6-dichlorobenzamide] the IC50 [1] was greater than 10 µM.

Compound O=C(CNc1ccccc1)Nc1cccc(C2CCCN(c3ncnc4[nH]ccc34)C2)c1 (centres unmarked) [Cmpd 17, N-(3-(1-(7H-pyrrolo[2,3-d]pyrimidin-4-yl)piperidin-3-yl)phenyl)-2-(phenylamino) acetamide] has an IC50 [1] greater than 10 µM.

O=C(Nc1cccc(C2CCCN(c3ncnc4[nH]ccc34)C2)c1)[C@@H](O)c1ccccc1 (stereo partly drawn) [Cmpd 18, (2S)—N-(3-(1-(7H-pyrrolo[2,3-d]pyrimidin-4-yl)piperidin-3-yl)phenyl)-2-hydroxy-2-phenylacetamide] showed an IC50 of 1 to 10 µM.

For O=C(Nc1cccc(C2CCCN(c3ncnc4[nH]ccc34)C2)c1)[C@H](O)c1ccccc1 (stereo partly drawn) [Cmpd 19, (2R)—N-(3-(1-(7H-pyrrolo[2,3-d]pyrimidin-4-yl)piperidin-3-yl)phenyl)-2-hydroxy-2-phenylacetamide], the IC50 was 1 to 10 µM.

Compound N[C@H](C(=O)Nc1cccc(C2CCCN(c3ncnc4[nH]ccc34)C2)c1)c1ccccc1 (stereo partly drawn) [Cmpd 20, (2S)—N-(3-(1-(7H-pyrrolo[2,3-d]pyrimidin-4-yl)piperidin-3-yl)phenyl)-2-amino-2-phenylacetamide] has an IC50 [1] greater than 10 µM.

N[C@@H](C(=O)Nc1cccc(C2CCCN(c3ncnc4[nH]ccc34)C2)c1)c1ccccc1 (stereo partly drawn) [Cmpd 21, (2R)—N-(3-(1-(7H-pyrrolo[2,3-d]pyrimidin-4-yl)piperidin-3-yl)phenyl)-2-amino-2-phenylacetamide] was tested, and the IC50 [1] was greater than 10 µM.

O=C(COc1ccccc1)Nc1cccc(C2CCCN(c3ncnc4[nH]ccc34)C2)c1 (centres unmarked) [Cmpd 22, N-(3-(1-(7H-pyrrolo[2,3-d]pyrimidin-4-yl)piperidin-3-yl)phenyl)-2-phenoxyacetamide] was tested, and the IC50 was 1 to 10 µM.

For O=C(CCc1ccccc1)Nc1cccc(C2CCCN(c3ncnc4[nH]ccc34)C2)c1 (centres unmarked) [Cmpd 23, N-(3-(1-(7H-pyrrolo[2,3-d]pyrimidin-4-yl)piperidin-3-yl)phenyl)-3-phenylpropanamide], the IC50 was 1 to 10 µM.

With O=C(Nc1cccc(Cl)c1)Nc1cccc(C2CCCN(c3ncnc4[nH]ccc34)C2)c1 (centres unmarked) [Cmpd 26, 1-(3-(1-(7H-pyrrolo[2,3-d]pyrimidin-4-yl)piperidin-3-yl)phenyl)-3-(3-chlorophenyl)urea] the IC50 was 1 to 10 µM.

For O=C(Nc1ccc(Cl)cc1)Nc1cccc(C2CCCN(c3ncnc4[nH]ccc34)C2)c1 (centres unmarked) [Cmpd 27, 1-(3-(1-(7H-pyrrolo[2,3-d]pyrimidin-4-yl)piperidin-3-yl)phenyl)-3-(4-chlorophenyl)urea], the IC50 was 1 to 10 µM.

O=C(Nc1ccccc1)Nc1cccc(C2CCN(c3ncnc4[nH]ccc34)C2)c1 (centres unmarked) [Cmpd 28, 1-(3-(1-(7H-pyrrolo[2,3-d]pyrimidin-4-yl)pyrrolidin-3-yl)phenyl)-3-phenylurea] showed an IC50 of 1 to 10 µM.

Compound O=C(Nc1cccc(C2CCCN(c3ncnc4[nH]ccc34)C2)c1)Nc1ccccn1 (centres unmarked) [Cmpd 29, 1-(3-(1-(7H-pyrrolo[2,3-d]pyrimidin-4-yl)piperidin-3-yl)phenyl)-3-(pyridin-2-yl)urea] has an IC50 of 1 to 10 µM.

O=C(Nc1cccnc1)Nc1cccc(C2CCCN(c3ncnc4[nH]ccc34)C2)c1 (centres unmarked) [Cmpd 30, 1-(3-(1-(7H-pyrrolo[2,3-d]pyrimidin-4-yl)piperidin-3-yl)phenyl)-3-(pyridin-3-yl)urea] showed an IC50 of 1 to 10 µM.

Work on O=C(Nc1ccncc1)Nc1cccc(C2CCCN(c3ncnc4[nH]ccc34)C2)c1 (centres unmarked) [Cmpd 31, 1-(3-(1-(7H-pyrrolo[2,3-d]pyrimidin-4-yl)piperidin-3-yl)phenyl)-3-(pyridin-4-yl)urea] yielded an IC50 [1] greater than 10 µM.

Compound O=C(Nc1ccsc1)Nc1cccc(C2CCCN(c3ncnc4[nH]ccc34)C2)c1 (centres unmarked) [Cmpd 32, 1-(3-(1-(7H-pyrrolo[2,3-d]pyrimidin-4-yl)piperidin-3-yl)phenyl)-3-(thiophen-3-yl)urea] has an IC50 of 1 to 10 µM.

For CCc1cccc(CC)c1NC(=O)Nc1cccc(C2CCCN(c3ncnc4[nH]ccc34)C2)c1 (centres unmarked) [Cmpd 33, 1-(3-(1-(7H-pyrrolo[2,3-d]pyrimidin-4-yl)piperidin-3-yl)phenyl)-3-(2,6-diethylphenyl)urea], the IC50 was 0.1 to 0.999 µM.

Work on CN(C)c1ccccc1NC(=O)Nc1cccc(C2CCCN(c3ncnc4[nH]ccc34)C2)c1 (centres unmarked) [Cmpd 34, 1-(3-(1-(7H-pyrrolo[2,3-d]pyrimidin-4-yl)piperidin-3-yl)phenyl)-3-(2-(dimethylamino)phenyl)urea] yielded an IC50 of 1 to 10 µM.

O=C(Nc1cccc(C2CCCN(c3ncnc4[nH]ccc34)C2)c1)Nc1ccccc1-n1ccnc1 (centres unmarked) [Cmpd 35, 1-(2-(1H-imidazol-1-yl)phenyl)-3-(3-(1-(7H-pyrrolo[2,3-d]pyrimidin-4-yl)piperidin-3-yl)phenyl)urea] gave an IC50 of 1 to 10 µM.

Compound C[C@@H](NC(=O)Nc1cccc(C2CCCN(c3ncnc4[nH]ccc34)C2)c1)c1ccccc1 (stereo partly drawn) [Cmpd 43, 1-(3-(1-(7H-pyrrolo[2,3-d]pyrimidin-4-yl)piperidin-3-yl)phenyl)-3-((R)-1-phenylethyl)urea] has an IC50 of 1 to 10 µM.

C[C@@H](NC(=O)Nc1cccc(C2CCCN(c3ncnc4[nH]ccc34)C2)c1)C1CCCCC1 (stereo partly drawn) [Cmpd 44, 1-(3-(1-(7H-pyrrolo[2,3-d]pyrimidin-4-yl)piperidin-3-yl)phenyl)-3-((R)-1-cyclohexylethyl)urea] was tested, and the IC50 was 1 to 10 µM.

O=C(Nc1cccc(C2CCCN(c3ncnc4[nH]ccc34)C2)c1)Nc1ccccc1C1CCCC1 (centres unmarked) [Cmpd 48, 1-(3-(1-(7H-pyrrolo[2,3-d]pyrimidin-4-yl)piperidin-3-yl)phenyl)-3-(2-cyclopentylphenyl)urea] gave an IC50 of 0.1 to 0.999 µM.

For O=C(Nc1cccc(C2CCCN(c3ncnc4[nH]ccc34)C2)c1)Nc1c(F)cc(F)cc1N1CCCC1 (centres unmarked) [Cmpd 49, 1-(3-(1-(7H-pyrrolo[2,3-d]pyrimidin-4-yl)piperidin-3-yl)phenyl)-3-(2,4-difluoro-6-(pyrrolidin-1-yl)phenyl)urea], the IC50 was less than 0.1 µM.

O=C(Nc1cccc(C2CCCN(c3ncnc4[nH]ccc34)C2)c1)Nc1c(Cl)cccc1N1CCCC1 (centres unmarked) [Cmpd 50, 1-(3-(1-(7H-pyrrolo[2,3-d]pyrimidin-4-yl)piperidin-3-yl)phenyl)-3-(2-chloro-6-(pyrrolidin-1-yl)phenyl)urea] showed an IC50 [1] of less than 0.1 µM.

With O=C(Nc1cccc(C2CCCN(c3ncnc4[nH]ccc34)C2)c1)Nc1c(F)cccc1N1CCCC1=O (centres unmarked) [Cmpd 51, 1-(3-(1-(7H-pyrrolo[2,3-d]pyrimidin-4-yl)piperidin-3-yl)phenyl)-3-(2-fluoro-6-(2-oxopyrrolidin-1-yl)phenyl)urea] the IC50 was 1 to 10 µM.

For C[C@@H]1CCCN1c1cccc(F)c1NC(=O)Nc1cccc(C2CCCN(c3ncnc4[nH]ccc34)C2)c1 (stereo partly drawn) [Cmpd 52, 1-(3-(1-(7H-pyrrolo[2,3-d]pyrimidin-4-yl)piperidin-3-yl)phenyl)-3-(2-fluoro-6-((R)-2-methylpyrrolidin-1-yl)phenyl)urea], the IC50 [1] was less than 0.1 µM.

Work on O=C(Nc1cccc(C2CCCN(c3ncnc4[nH]ccc34)C2)c1)N1CCCCC1 (centres unmarked) [Cmpd 53, N-(3-(1-(7H-pyrrolo[2,3-d]pyrimidin-4-yl)piperidin-3-yl)phenyl)piperidine-1-carboxamide] yielded an IC50 of 1 to 10 µM.

With Cc1cc(NC(=O)Nc2cccc(C3CCCN(c4ncnc5[nH]ccc45)C3)c2)no1 (centres unmarked) [Cmpd 57, 1-(3-(1-(7H-pyrrolo[2,3-d]pyrimidin-4-yl)piperidin-3-yl)phenyl)-3-(5-methylisoxazol-3-yl)urea] the IC50 was 1 to 10 µM.

Reference: patent US9790229B2, “Bruton's tyrosine kinase inhibitors” (priority 2009, dated 2017)
